Assay results from paper PMC12543283, “TastepepAI: An artificial intelligence platform for taste peptide de novo design” (PLOS Computational Biology, 2025).
Where “and” joins values, the source holds several entries; their conditions need not be identical. Equal values may be shown once. Ends that are not written are not given here.

Assays:
[1] = Electronic tongue analysis (Taste-Sensing System SA 402B); design: unit not given here; details: reference solution 30 mM KCl + 0.3 mM tartaric acid as baseline, first measurement excluded; for Umami: sensor AAE; for Umami / Bitter / Sweet: detection threshold 0, room temperature; for Umami / Bitter / Sour / Salty: four replicates; for Sour: detection threshold -13, room temperature; for Salty: detection threshold -6, room temperature; for Sweet: measured five times
Procedure, shortened: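 Samples were tested at 0.1 and 1.0 mg/mL on an SA 402B e-tongue fitted with sourness, saltiness, bitterness, sweetness and umami sensors, with 30 mM KCl/0.3 mM tartaric acid as reference and baseline. Thresholds were −13 for sour, −6 for salty and 0 for the rest. Runs at room temperature: four replicates, five for sweetness, first reading discarded.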

[2] = system: human bronchial epithelial cells (BEAS-2B)
[3] = system: human embryonic kidney cells (HEK293T)
Method: (§1) The cytotoxicity of 73 synthetic peptides was evaluated using four human cell lines: human pancreatic ductal epithelial cells (HPNE), human embryonic kidney cells (HEK293T), human umbilical vein endothelial cells (HUVEC), and human bronchial epithelial cells (BEAS-2B). When cell density reached 70% confluence, the complete culture medium was replaced with serum-free maintenance medium, and peptides were added at a final concentration of 100 μM for 36 h. Control groups received only serum-free maintenance medium without peptides. Cell proliferation was assessed using the CCK-8 assay kit (Solarbio, CA1210) according to the manufacturer’s instructions.

[4] = system: human pancreatic ductal epithelial cells (HPNE)
Method: as §1

[5] = system: human umbilical vein endothelial cells (HUVEC)

Substance	Umami ([1]; peptide 1 mg/mL)	Bitter ([1]; sensor C00, peptide 1 mg/mL)	Sour ([1]; sensor CA0, peptide 0.1 mg/mL)	Sour ([1]; sensor CA0, peptide 1 mg/mL)	Salty ([1]; sensor CT0, peptide 1 mg/mL)	Sweet ([1]; sensor GL1, peptide 0.1 mg/mL)	Sweet ([1]; sensor GL1, peptide 1 mg/mL)	Average cell viability, BEAS-2B [2]	Cell viability, BEAS-2B, Data1 [2]	Cell viability, BEAS-2B, Data2 [2]	Cell viability, BEAS-2B, Data3 [2]	Average cell viability, HEK293T [3]	Cell viability, HEK293T, Data1 [3]	Cell viability, HEK293T, Data2 [3]	Cell viability, HEK293T, Data3 [3]	Average cell viability, HPNE [4]	Cell viability, HPNE, Data1 [4]	Cell viability, HPNE, Data2 [4]	Cell viability, HPNE, Data3 [4]	Average cell viability, HUVEC [5]	also measured
LNGPQ [TaPep63]	-6.21	4.12	-2.72	15.39	10.16	5.62	-5.33	103.52	114.46	93.02	103.09	99.12	94.35	104.86	98.14	97.14	82.16	94.94	114.31	95.61	Umami ([1]; peptide 0.1 mg/mL): 1.41; Bitter ([1]; sensor C00, peptide 0.1 mg/mL): 7.27; Salty ([1]; sensor CT0, peptide 0.1 mg/mL): -20.42; Cell viability, HUVEC, Data1 [5]: 91.41; Cell viability, HUVEC, Data2 [5]: 96.35; Cell viability, HUVEC, Data3 [5]: 99.07
LQDVVE [TaPep24]	-3.57	3.73	-4.17	9.09	4.83	6.22	-4.08	113.59	103.99	117.45	119.34	99.02	102.40	97.85	96.81	93.71	94.37	92.98	93.78	103.54	Cell viability, HUVEC, Data1 [5]: 91.48; Cell viability, HUVEC, Data2 [5]: 106.25; Cell viability, HUVEC, Data3 [5]: 112.88
LQPDAGK [TaPep6]	-5.07	2.72	-4.43	10.67	12.20	8.22	-5.48	102.76	91.82	107.88	108.57	98.83	101.83	97.29	97.38	97.97	95.64	99.55	98.73	102.10	Umami ([1]; peptide 0.1 mg/mL): 1.99; Bitter ([1]; sensor C00, peptide 0.1 mg/mL): 7.90; Salty ([1]; sensor CT0, peptide 0.1 mg/mL): -19.24; Cell viability, HUVEC, Data1 [5]: 91.96; Cell viability, HUVEC, Data2 [5]: 115.19; Cell viability, HUVEC, Data3 [5]: 99.15
LQPSLEH [TaPep59]	-6.02	1.90	-3.89	15.44	15.85	6.34	-7.32	100.60	96.61	109.87	95.31	98.64	100.88	99.94	95.11	92.71	105.62	84.46	88.05	104.79	Umami ([1]; peptide 0.1 mg/mL): 1.85; Bitter ([1]; sensor C00, peptide 0.1 mg/mL): 7.83; Salty ([1]; sensor CT0, peptide 0.1 mg/mL): -19.53; Cell viability, HUVEC, Data1 [5]: 97.39; Cell viability, HUVEC, Data2 [5]: 106.49; Cell viability, HUVEC, Data3 [5]: 110.48
LWGPVT [TaPep72]	-4.42	3.83	-4.62	11.06	7.83	7.58	-5.31	100.50	118.74	92.32	90.43	100.76	102.49	95.02	104.76	101.26	115.31	97.84	90.65	99.47	Umami ([1]; peptide 0.1 mg/mL): 2.15; Bitter ([1]; sensor C00, peptide 0.1 mg/mL): 7.25; Salty ([1]; sensor CT0, peptide 0.1 mg/mL): -19.66; Cell viability, HUVEC, Data1 [5]: 107.29; Cell viability, HUVEC, Data2 [5]: 101.62; Cell viability, HUVEC, Data3 [5]: 89.49
NGDDEEG [TaPep7]	-5.11	bitterness suppression and -0.45	-2.86	11.92	9.19	6.98	-6.18	102.56	94.72	111.17	101.79	95.11	96.15	94.73	94.45	99.30	92.35	93.04	112.51	105.24	Umami ([1]; peptide 0.1 mg/mL): 1.28; Bitter ([1]; sensor C00, peptide 0.1 mg/mL): 7.41; Salty ([1]; sensor CT0, peptide 0.1 mg/mL): -21.22; Cell viability, HUVEC, Data1 [5]: 113.68; Cell viability, HUVEC, Data2 [5]: 110.16; Cell viability, HUVEC, Data3 [5]: 91.88
NNDDEES [TaPep50]	-3.90	4.27	-4.45	9.63	3.54	7.42	-3.07	104.39	104.29	103.89	104.99	101.39	105.62	98.99	99.56	98.30	106.02	107.52	81.36	105.59	Umami ([1]; peptide 0.1 mg/mL): 2.11; Bitter ([1]; sensor C00, peptide 0.1 mg/mL): 7.18; Salty ([1]; sensor CT0, peptide 0.1 mg/mL): -22.53; Cell viability, HUVEC, Data1 [5]: 101.94; Cell viability, HUVEC, Data2 [5]: 108.73; Cell viability, HUVEC, Data3 [5]: 106.09
